Patent US20170006866A1, “PHYTOSANITARY COMPOSITION” (INSTITUT NATIONAL DE LA RECHERCHE AGRONOMIQUE-INRA, priority 2014, published 2017)

Key:
Type in all cases: in vivo
Myzus persicae [1] = test: Toxicity on larval growth (cumulative larval mortality on supplemented Ap3 medium), green peach aphid; settings: larval growth D1-D7
Protocol: (§1) b) Measurement of the toxicity of chicoric acid or caftaric acid on larval growth of the green peach aphid (Myzus persicae) and the pea aphid (Acyrthosiphon pisum)
(§2) The objective is to quantify the toxic effect of chicoric acid or caftaric acid on the aphid for the period of larval growth thereof, i.e. 8 to 10 days for Myzus persicae and Acyrthosiphon pisum at 19° C. The molecule is added at different concentrations to the Ap3 control nutrient medium. The dose “0” corresponds to Ap3 medium alone.
(§3) The medium (75 μl) is poured between two UV-sterilized Parafilm® stretched onto a cylindrical PVC support (h=1.5 cm, d=2 cm), under sterile conditions.
(§4) On the Day D0, 20 neonate larvae are deposited inside the cylinder, which is then turned over and applied to a square of Parafilm©. The dishes are placed in filtered light (16 hours day/8 hours night) and in a chamber at 19° C. The fixation percentage is recorded after 1 hour as a short-term phagostimulation indicator and to check that no anomaly occurred during aphid deposition. The larval mortality is recorded daily at the end of the day. […] On the day of the imaginal moult thereof, the aphids having reached the adult aptera stage are deposited successively on a precision balance (d=0.01 mg) and the cumulative weights are recorded for each concentration of each of the two molecules tested. The individual weights are calculated subsequently. […]

Myzus persicae [2] = test: Analysis of repellent effect: choice test between control Ap3 medium and test medium, phagostimulation index; settings: Myzus persicae larvae, doses 0 to 1 mM in Ap3 medium
Excerpt: a) Analysis of repellent effect: the method used is that developed by Yvan Rahbe (Rahbé & Febvay (1993) Entomologia Experimentalis et Applicata 67: 149-160; Chen (1996) Thesis submitted to Institut National des Sciences Appliquées, Lyon, France: 158 p) within the scope of research on the chemical determinants of the resistance of plants to various species of aphids (Aphis gossypii, Acyrthosiphon pisum), and adapted to the green aphid Myzus persicae.
The objective is to evaluate the attractive or repellent nature of a candidate molecule, at different concentrations, either with respect to control base medium (dose “0”), or with respect to another substance. […]
The medium (35 μl) is poured between two Parafilm® membranes stretched onto an Eppendorf® cone. […] The following morning, the number of aphids fixed on each medium is then recorded. […] A phagostimulation index, representing the degree of appetence of the test medium for the aphid, is calculated as follows: […]

Acyrthosiphon pisum = test: Toxicity on larval growth (cumulative larval mortality on supplemented Ap3 medium), pea aphid
Protocol: as §1, §2, §3, §4

`O=C(/C=C/c1ccc(O)c(O)c1)O[C@@H](C(=O)O)[C@@H](OC(=O)/C=C/c1ccc(O)c(O)c1)C(=O)O` [chicoric acid, dicaffeyl tartaric acid] was tested, and the larval mortality (Myzus persicae [1]; from 0.125 mM in Ap3 medium) was about 80%, the larval mortality (Myzus persicae [1]; from 0.25 mM in Ap3 medium) was 100% and the “dose from which a highly significant repellent effect is displayed” value (Myzus persicae [2]; 15 hours at 19° C.) was at least 62.5 µM. For the same molecule, the “repellent effect (result in words)” value (Myzus persicae [2]) was “significant repellent effect”, the “dose from which a very significant toxic effect (p<0.001) is observed” value (Acyrthosiphon pisum; Acyrthosiphon pisum larval growth) was at least 0.5 mM and the mortality at 500 µM (Acyrthosiphon pisum; Acyrthosiphon pisum, read-out: larval mortality) was over 80%.
